In brackets after ≈: the same amount, converted by molar mass.
Legend:
Type in all cases: functional
Saccharomyces cerevisiae [1] = assay: Antimicrobial activity against wild type Saccharomyces cerevisiae BY4741 by broth microdilution method
Saccharomyces cerevisiae [2] = assay: Antimicrobial activity against Saccharomyces cerevisiae containing disruption in RAD18 gene by broth microdilution method
Saccharomyces cerevisiae [3] = assay: Antimicrobial activity against Saccharomyces cerevisiae containing disruption in IFA38 gene by broth microdilution method
Saccharomyces cerevisiae [4] = assay: Antimicrobial activity against Saccharomyces cerevisiae containing disruption in SNF1 gene by broth microdilution method
Saccharomyces cerevisiae [5] = assay: Antimicrobial activity against Saccharomyces cerevisiae containing disruption in RTG2 gene by broth microdilution method
Saccharomyces cerevisiae [6] = assay: Antimicrobial activity against Saccharomyces cerevisiae containing disruption in YLR456W gene by broth microdilution method
Saccharomyces cerevisiae [7] = assay: Antimicrobial activity against Saccharomyces cerevisiae containing disruption in APL2 gene by broth microdilution method
Saccharomyces cerevisiae [8] = assay: Antimicrobial activity against Saccharomyces cerevisiae containing disruption in […] gene by broth microdilution method
Saccharomyces cerevisiae [9] = assay: Antimicrobial activity against Saccharomyces cerevisiae containing disruption in YGL235W gene by broth microdilution method
Saccharomyces cerevisiae [10] = assay: Antimicrobial activity against Saccharomyces cerevisiae containing disruption in YKL037W gene by broth microdilution method
Saccharomyces cerevisiae [11] = assay: Antimicrobial activity against Saccharomyces cerevisiae containing disruption in YOR345C gene by broth microdilution method
Saccharomyces cerevisiae [12] = assay: Antimicrobial activity against Saccharomyces cerevisiae containing disruption in CYS3 gene by broth microdilution method
Saccharomyces cerevisiae [13] = assay: Antimicrobial activity against Saccharomyces cerevisiae containing disruption in MEF2 gene by broth microdilution method
Saccharomyces cerevisiae [14] = assay: Antimicrobial activity against Saccharomyces cerevisiae containing disruption in YGL072C gene by broth microdilution method

| SMILES | MIC (Saccharomyces cerevisiae [1]) | MIC (Saccharomyces cerevisiae [2]) | MIC (Saccharomyces cerevisiae [3]) | MIC (Saccharomyces cerevisiae [4]) | MIC (Saccharomyces cerevisiae [5]) | MIC (Saccharomyces cerevisiae [6]) | MIC (Saccharomyces cerevisiae [7]) | MIC (Saccharomyces cerevisiae [8]) | MIC (Saccharomyces cerevisiae [9]) | MIC (Saccharomyces cerevisiae [10]) | MIC (Saccharomyces cerevisiae [11]) | MIC (Saccharomyces cerevisiae [12]) | MIC (Saccharomyces cerevisiae [13]) | MIC (Saccharomyces cerevisiae [14]) |
| --- | --- | --- | --- | --- | --- | --- | --- | --- | --- | --- | --- | --- | --- | --- |
| C[C@@H]1[C@H](O)[C@@H](C)/C=C/C=C/C=C/C=C/C=C/C=C/C=C/[C@H](O[C@@H]2O[C@H](C)[C@@H](O)[C@H](N)[C@@H]2O)C[C@@H]2O[C@](O)(C[C@@H](O)C[C@@H](O)[C@H](O)CC[C@@H](O)C[C@@H](O)CC(=O)O[C@H]1C)C[C@H](O)[C@H]2C(=O)O [AMPHOTERICIN B] | 0.125 µg/mL (≈ 0.135 µM) | 0.5 µg/mL (≈ 0.541 µM) | 0.5 µg/mL (≈ 0.541 µM) | 0.5 µg/mL (≈ 0.541 µM) | 0.5 µg/mL (≈ 0.541 µM) | 0.5 µg/mL (≈ 0.541 µM) | 0.5 µg/mL (≈ 0.541 µM) | 0.5 µg/mL (≈ 0.541 µM) | 0.5 µg/mL (≈ 0.541 µM) | 0.25 µg/mL (≈ 0.271 µM) | 0.5 µg/mL (≈ 0.541 µM) | 0.25 µg/mL (≈ 0.271 µM) | 0.25 µg/mL (≈ 0.271 µM) | 0.5 µg/mL (≈ 0.541 µM) |
| CC[C@H](C)C[C@H](C)CCCCCCCCC(=O)N[C@H]1C[C@@H](O)[C@@H](NCCN)NC(=O)[C@@H]2[C@@H](O)CCN2C(=O)[C@H]([C@H](O)CCN)NC(=O)[C@H]([C@H](O)[C@@H](O)c2ccc(O)cc2)NC(=O)[C@@H]2C[C@@H](O)CN2C(=O)[C@H]([C@@H](C)O)NC1=O [CASPOFUNGIN] | 0.007 µg/mL (≈ 0.0064 µM) | 0.007 µg/mL (≈ 0.0064 µM) | 0.007 µg/mL (≈ 0.0064 µM) | 0.007 µg/mL (≈ 0.0064 µM) | 0.007 µg/mL (≈ 0.0064 µM) | 0.007 µg/mL (≈ 0.0064 µM) | 0.007 µg/mL (≈ 0.0064 µM) | 0.007 µg/mL (≈ 0.0064 µM) | 0.007 µg/mL (≈ 0.0064 µM) | 0.028 µg/mL (≈ 0.0256 µM) | 0.007 µg/mL (≈ 0.0064 µM) | 0.028 µg/mL (≈ 0.0256 µM) | 0.028 µg/mL (≈ 0.0256 µM) | 0.007 µg/mL (≈ 0.0064 µM) |
| C[C@@H]1C[C@@H]([C@H](O)CC2CC(=O)NC(=O)C2)C(=O)[C@@H](C)C1 [CYCLOHEXIMIDE] | 0.025 µg/mL (≈ 0.0889 µM) | 0.025 µg/mL (≈ 0.0889 µM) | 0.025 µg/mL (≈ 0.0889 µM) | 0.025 µg/mL (≈ 0.0889 µM) | 0.025 µg/mL (≈ 0.0889 µM) | 0.025 µg/mL (≈ 0.0889 µM) | 0.025 µg/mL (≈ 0.0889 µM) | 0.025 µg/mL (≈ 0.0889 µM) | 0.025 µg/mL (≈ 0.0889 µM) | 0.025 µg/mL (≈ 0.0889 µM) | 0.025 µg/mL (≈ 0.0889 µM) | 0.025 µg/mL (≈ 0.0889 µM) | 0.025 µg/mL (≈ 0.0889 µM) | 0.025 µg/mL (≈ 0.0889 µM) |
| OC(Cn1cncn1)(Cn1cncn1)c1ccc(F)cc1F [FLUCONAZOLE] | 32 µg/mL (≈ 104 µM) | 16 µg/mL (≈ 52.2 µM) | 16 µg/mL (≈ 52.2 µM) | 16 µg/mL (≈ 52.2 µM) | 16 µg/mL (≈ 52.2 µM) | 16 µg/mL (≈ 52.2 µM) | 16 µg/mL (≈ 52.2 µM) | 16 µg/mL (≈ 52.2 µM) | 16 µg/mL (≈ 52.2 µM) | 32 µg/mL (≈ 104 µM) | 16 µg/mL (≈ 52.2 µM) | 32 µg/mL (≈ 104 µM) | 32 µg/mL (≈ 104 µM) | 16 µg/mL (≈ 52.2 µM) |
| CN1C(=O)[C@]23CC4=CC=C[C@H](O)[C@H]4N2C(=O)[C@@]1(CO)SS3 [GLIOTOXIN] | 0.5 µg/mL (≈ 1.53 µM) | 8 µg/mL (≈ 24.5 µM) | 2 µg/mL (≈ 6.13 µM) | 8 µg/mL (≈ 24.5 µM) | 8 µg/mL (≈ 24.5 µM) | 8 µg/mL (≈ 24.5 µM) | 8 µg/mL (≈ 24.5 µM) | 2 µg/mL (≈ 6.13 µM) | 8 µg/mL (≈ 24.5 µM) | 0.125 µg/mL (≈ 0.383 µM) | 16 µg/mL (≈ 49 µM) | 0.06 µg/mL (≈ 0.184 µM) | 0.06 µg/mL (≈ 0.184 µM) | 16 µg/mL (≈ 49 µM) |
